Entries after “also recorded” stand apart in the source; their conditions may differ. Numbered stars: 1 amine (or outer) side, 2 acyl side, 3 side chain; on linkers, the order of the positions; unused ones are H or OH. Bridge positions count the residues as written; N and C are the ends. Square brackets hold non-standard residues; d marks the D form. Peptide text beside a SMILES is read from it. I, II: the chains in the order shown. Actinocin(9to1) = Cc1c2oc3c(C)ccc(C(=O)[*:1])c3nc-2c(C(=O)[*:2])c(N)c1=O; NMeV = CN[C@H](C(=O)O)C(C)C; Sar = CNCC(=O)O
How the values were obtained:
RGCs [1] = assay: RGC survival in primary retinal cultures; format: cell-based, rat
Procedure: (§1) Adult rat retinal cultures were prepared as described^21. […] One week later, retinas were dissected, dissociated, and the cells plated in defined, serum-free medium. Axon growth (% RGCs extending axons ≧30 μm, ≧70 μm or ≧140 μm in length) was evaluated after 3 d in quadruplicate samples in a blinded fashion. All experiments were repeated at least three separate times. In some instances, cells were immunostained with GAP-43 antibody (1:500, Chemicon).

RGCs [2] = assay: axon outgrowth in primary adult retinal cultures; format: cell-based, rat; conditions: for effect of inhibitor on oncomodulin-induced axon outgrowth: PD98059 5 μM, LY 294002 20 μM, Jaki 20 nM, KN92 10 μM, ActD 8 nM
Procedure: Protein A beads (Sigma) were incubated with either rabbit anti-OM antiserum (Swant) or normal rabbit serum (Invitrogen) for 16 h at 4° C. After extensive rinsing, beads with adsorbed IgGs were mixed with MCM (1 ml 10× concentrate, collected 8 h after zymosan treatment) for 24 h at 4° C. and then pelleted down by centrifugation. We tested 5 μl of the supernatants or untreated MCM for oncomodulin by western blotting. Bioactivity of immune-depleted and control MCM was tested in dissociated RGC cultures as described below at a 1:4 dilution, a concentration found to give a near-maximal response.
as §1

DRG neurons = assay: neurite outgrowth of DRG neurons cultured after intraganglionic injection in vivo; format: cell-based, rat; conditions: CSPG substrate
Procedure: L4-L5 DRGs from adult male Sprague-Dawley rats (250-300 g) were injected with 5 μl of saline or oncomodulin (200 ng μl^−1). After 7 d, injected ganglia were dissected and single-cell suspensions were prepared as described^50. Cells were cultured on laminin (Sigma) with or without CSPGs (Chemicon) for 20 h or 40 h. In some cases, chondroitinase ABC (0.5 U ml^−1, Seikagaku) was added. Neurite outgrowth was visualized by Tuj1 antibody to class III β-tubulin (1:5,000, Babco) and quantified in quadruplicate samples by a blinded observer. In other studies, L4-L5 DRG neurons were cultured in the presence of absence of oncomodulin, mannose and/or forskolin in RPMI-1640 to limit spontaneous outgrowth. Cells were fixed and immunostained after 3 d and evaluated for outgrowth.

mature RGCs = conditions: previously reported; cited from earlier work

Row | Molecule | effect of inhibitor on oncomodulin-induced axon outgrowth (RGCs [2]; KN93 10 μM) | axon extension of mature RGCs in culture (mature RGCs) | other results
1 | Lysozyme | – | – | diminished RGC survival (RGCs [1]; data not shown): ~25%; axon outgrowth from RGCs (RGCs [2]; data not shown): did not enhance outgrowth
2 | Cc1c2oc3c(C)ccc(C(=O)N[C@@H]4C(=O)N[C@H](C(C)C)C(=O)N5CCC[C@H]5C(=O)N(C)CC(=O)N(C)[C@@H](C(C)C)C(=O)O[C@@H]4C)c3nc-2c(C(=O)N[C@@H]2C(=O)N[C@H](C(C)C)C(=O)N3CCC[C@H]3C(=O)N(C)CC(=O)N(C)[C@@H](C(C)C)C(=O)O[C@@H]2C)c(N)c1=O [actinomycin D, reference compound] (I: T[dV]P[Sar][NMeV] / II: T[dV]P[Sar][NMeV]; ester I:1-I:C, II:1-II:C; linker I:N-II:N via Actinocin(9to1)) | blocked the effects of oncomodulin on outgrowth | – | RGC survival (RGCs [1]; retinal culture): without altering RGC survival
3 | chondroitinase ABC | – | – | DRG neurite outgrowth on nonpermissive substrate (DRG neurons): promoted some outgrowth
4 | fibroblast growth factor-2 | – | do not stimulate mature RGCs to extend axons | –
5 | CCCC(=O)Nc1ncnc2c1ncn2[C@@H]1O[C@@H]2COP(=O)(O)O[C@H]2[C@H]1OC(=O)CCC [dibutyryl cAMP, reference compound] | – | – | effect on oncomodulin-induced outgrowth (RGCs [2]; [dB-cAMP] above 250 μM): further increases diminished outgrowth; effect on oncomodulin-induced outgrowth (RGCs [2]; [dB-cAMP] up to 250 μM): enhanced the effect of oncomodulin
6 | calmodulin | – | – | axon outgrowth bioassay, Ca2+-binding proteins (RGCs [2]; 15 nM or tenfold higher concentration, forskolin and mannose present): inactive
7 | COc1ccc(S(=O)(=O)N(CCO)c2ccccc2CN(C)C/C=C/c2ccc(Cl)cc2)cc1 [KN93, reference compound] | blocked the effect of oncomodulin fully | – | effect of inhibitor on outgrowth induced by forskolin plus mannose (RGCs [2]; KN93 10 μM, three inhibitors combined): without altering the effect of mannose and forskolin
8 | CC(C)(C)c1nc2c3cc[nH]c(=O)c3c3cc(F)ccc3c2[nH]1 [Jaki, reference compound] | did not diminish oncomodulin's activity | – | –
9 | nerve growth factor | – | do not stimulate mature RGCs to extend axons | –
10 | epidermal growth factor | – | do not stimulate mature RGCs to extend axons | –
11 | interleukin-6 | – | do not stimulate mature RGCs to extend axons | –
12 | COc1cccc(-c2cc(=O)c3ccccc3o2)c1N [PD98059, reference compound] | not blocked; also recorded: enhanced outgrowth slightly | – | –
13 | COc1ccc(S(=O)(=O)Nc2ccccc2CN(C)C/C=C/c2ccc(Cl)cc2)cc1 [KN92, reference compound] | did not substantially diminish outgrowth | – | –

Source: patent US20090156496A1, “METHODS AND COMPOSITIONS FOR TREATING AND PREVENTING PERIPHERAL NERVE DAMAGE” (CHILDREN'S MEDICAL CENTER CORPORATION, INC., priority 2006, published 2009)
